{"source": "the supplement of paper PMC10307832", "test_in_all_cases": "relative viability (nuclei count vs DMSO), 5 days (fraction); higher = more cells survive", "key": {"[1]": {"system": "NCI-H1755", "outline": "(§1)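 Lung cancer cell lines, seeded in 1536-well plates, were treated the following day by pin tool with a single drug or with five library-drug doses (not always all listed) in √10 steps on top of a fixed anchor-drug dose. Cells were fixed and nuclei stained in one step after 5 days, and nuclei were counted. Relative viability is the nuclei count for treated wells divided by that for vehicle wells, reported as medians of duplicate plates.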"}, "[2]": {"system": "SK-LU-1", "outline": "as §1"}, "[3]": {"system": "201T", "outline": "as §1"}, "[4]": {"system": "LU99A", "outline": "as §1"}, "[5]": {"system": "EKVX", "outline": "as §1"}, "[6]": {"system": "COR-L23", "outline": "as §1"}, "[7]": {"system": "LC-2-ad", "outline": "as §1"}, "[8]": {"system": "NCI-H596", "outline": "as §1"}, "[9]": {"system": "HCC-366", "outline": "as §1"}, "[10]": {"system": "NCI-H3122", "outline": "as §1"}, "[11]": {"system": "BEN", "outline": "as §1"}, "[12]": {"system": "LXF-289", "outline": "as §1"}, "[13]": {"system": "NCI-H1650", "outline": "as §1"}, "[14]": {"system": "RERF-LC-KJ", "outline": "as §1"}, "[15]": {"system": "HCC-78", "outline": "as §1"}, "[16]": {"system": "HCC-15", "outline": "as §1"}, "[17]": {"system": "NCI-H1944", "outline": "as §1"}, "[18]": {"system": "NCI-H1734", "outline": "as §1"}, "[19]": {"system": "HARA", "outline": "as §1"}, "[20]": {"system": "NCI-H1993", "outline": "as §1"}, "[21]": {"system": "HCC-827", "outline": "as §1"}, "[22]": {"system": "NCI-H1975", "outline": "as §1"}, "[23]": {"system": "COR-L 105", "outline": "as §1"}}, "data": [{"molecule": "Cc1cnc(-c2cnc(NCCNc3ccc(C#N)cn3)nc2-c2ccc(Cl)cc2Cl)[nH]1", "note": "+ O=C(CCCCCCC(=O)Nc1ccccc1)NO [Vorinostat] (partner 1 µM)", "values": [{"measurement": "relative viability", "setting": "[1]; first compound 0.08 µM", "result": 0.826}, {"measurement": "relative viability", "setting": "[1]; first compound 0.253 µM", "result": 0.684}, {"measurement": "relative viability", "setting": "[1]; first compound 0.8 µM", "result": 0.745}, {"measurement": "relative viability", "setting": "[1]; first compound 2.53 µM", "result": 0.823}, {"measurement": "relative viability", "setting": "[2]; first compound 0.08 µM", "result": 0.735}, {"measurement": "relative viability", "setting": "[2]; first compound 0.253 µM", "result": 0.818}, {"measurement": "relative viability", "setting": "[2]; first compound 0.8 µM", "result": 0.849}, {"measurement": "relative viability", "setting": "[2]; first compound 2.53 µM", "result": 0.85}, {"measurement": "relative viability", "setting": "[3]; first compound 0.08 µM", "result": 1.01}, {"measurement": "relative viability", "setting": "[3]; first compound 0.8 µM", "result": 0.977}, {"measurement": "relative viability", "setting": "[3]; first compound 2.53 µM", "result": 0.912}, {"measurement": "relative viability", "setting": "[4]; first compound 0.08 µM", "result": 0.592}, {"measurement": "relative viability", "setting": "[4]; first compound 0.253 µM", "result": 0.523}, {"measurement": "relative viability", "setting": "[4]; first compound 0.8 µM", "result": 0.535}, {"measurement": "relative viability", "setting": "[4]; first compound 2.53 µM", "result": 0.559}, {"measurement": "relative viability", "setting": "[5]; first compound 0.08 µM", "result": 0.789}, {"measurement": "relative viability", "setting": "[5]; first compound 0.253 µM", "result": 0.529}, {"measurement": "relative viability", "setting": "[5]; first compound 0.8 µM", "result": 0.658}, {"measurement": "relative viability", "setting": "[5]; first compound 2.53 µM", "result": 0.745}, {"measurement": "relative viability", "setting": "[6]; first compound 0.08 µM", "result": 0.556}, {"measurement": "relative viability", "setting": "[6]; first compound 0.253 µM", "result": 0.42}, {"measurement": "relative viability", "setting": "[6]; first compound 0.8 µM", "result": 0.508}, {"measurement": "relative viability", "setting": "[6]; first compound 2.53 µM", "result": 0.505}, {"measurement": "relative viability", "setting": "[7]; first compound 0.08 µM", "result": 0.708}, {"measurement": "relative viability", "setting": "[7]; first compound 0.8 µM", "result": 0.705}, {"measurement": "relative viability", "setting": "[7]; first compound 2.53 µM", "result": 0.603}, {"measurement": "relative viability", "setting": "[8]; first compound 0.08 µM", "result": 0.544}, {"measurement": "relative viability", "setting": "[8]; first compound 0.253 µM", "result": 0.568}, {"measurement": "relative viability", "setting": "[8]; first compound 0.8 µM", "result": 0.501}, {"measurement": "relative viability", "setting": "[8]; first compound 2.53 µM", "result": 0.688}, {"measurement": "relative viability", "setting": "[9]; first compound 0.08 µM", "result": 0.332}, {"measurement": "relative viability", "setting": "[9]; first compound 0.253 µM", "result": 0.24}, {"measurement": "relative viability", "setting": "[9]; first compound 0.8 µM", "result": 0.31}, {"measurement": "relative viability", "setting": "[9]; first compound 2.53 µM", "result": 0.369}, {"measurement": "relative viability", "setting": "[10]; first compound 0.08 µM", "result": 0.989}, {"measurement": "relative viability", "setting": "[10]; first compound 0.8 µM", "result": 0.934}, {"measurement": "relative viability", "setting": "[10]; first compound 2.53 µM", "result": 0.951}, {"measurement": "relative viability", "setting": "[11]; first compound 0.08 µM", "result": 0.575}, {"measurement": "relative viability", "setting": "[11]; first compound 0.253 µM", "result": 0.559}, {"measurement": "relative viability", "setting": "[11]; first compound 0.8 µM", "result": 0.595}, {"measurement": "relative viability", "setting": "[11]; first compound 2.53 µM", "result": 0.559}, {"measurement": "relative viability", "setting": "[12]; first compound 0.08 µM", "result": 0.737}, {"measurement": "relative viability", "setting": "[12]; first compound 0.253 µM", "result": 0.693}, {"measurement": "relative viability", "setting": "[12]; first compound 0.8 µM", "result": 0.734}, {"measurement": "relative viability", "setting": "[12]; first compound 2.53 µM", "result": 0.846}, {"measurement": "relative viability", "setting": "[13]; first compound 0.08 µM", "result": 0.564}, {"measurement": "relative viability", "setting": "[13]; first compound 0.253 µM", "result": 0.508}, {"measurement": "relative viability", "setting": "[13]; first compound 0.8 µM", "result": 0.546}, {"measurement": "relative viability", "setting": "[13]; first compound 2.53 µM", "result": 0.661}, {"measurement": "relative viability", "setting": "[14]; first compound 0.08 µM", "result": 0.815}, {"measurement": "relative viability", "setting": "[14]; first compound 0.253 µM", "result": 0.565}, {"measurement": "relative viability", "setting": "[14]; first compound 0.8 µM", "result": 0.58}, {"measurement": "relative viability", "setting": "[14]; first compound 2.53 µM", "result": 0.677}, {"measurement": "relative viability", "setting": "[15]; first compound 0.08 µM", "result": 0.553}, {"measurement": "relative viability", "setting": "[15]; first compound 0.253 µM", "result": 0.438}, {"measurement": "relative viability", "setting": "[15]; first compound 0.8 µM", "result": 0.39}, {"measurement": "relative viability", "setting": "[15]; first compound 2.53 µM", "result": 0.427}, {"measurement": "relative viability", "setting": "[16]; first compound 0.08 µM", "result": 0.832}, {"measurement": "relative viability", "setting": "[16]; first compound 0.253 µM", "result": 0.818}, {"measurement": "relative viability", "setting": "[16]; first compound 0.8 µM", "result": 0.817}, {"measurement": "relative viability", "setting": "[16]; first compound 2.53 µM", "result": 0.829}, {"measurement": "relative viability", "setting": "[17]; first compound 0.08 µM", "result": 0.591}, {"measurement": "relative viability", "setting": "[17]; first compound 0.8 µM", "result": 0.614}, {"measurement": "relative viability", "setting": "[17]; first compound 2.53 µM", "result": 0.566}, {"measurement": "relative viability", "setting": "[18]; first compound 0.08 µM", "result": 0.88}, {"measurement": "relative viability", "setting": "[18]; first compound 0.253 µM", "result": 0.693}, {"measurement": "relative viability", "setting": "[18]; first compound 0.8 µM", "result": 0.745}, {"measurement": "relative viability", "setting": "[18]; first compound 2.53 µM", "result": 0.661}, {"measurement": "relative viability", "setting": "[19]; first compound 0.08 µM", "result": 0.659}, {"measurement": "relative viability", "setting": "[19]; first compound 0.253 µM", "result": 0.612}, {"measurement": "relative viability", "setting": "[19]; first compound 0.8 µM", "result": 0.487}, {"measurement": "relative viability", "setting": "[19]; first compound 2.53 µM", "result": 0.492}, {"measurement": "relative viability", "setting": "[20]; first compound 0.08 µM", "result": 1.26}, {"measurement": "relative viability", "setting": "[20]; first compound 0.253 µM", "result": 0.761}, {"measurement": "relative viability", "setting": "[20]; first compound 0.8 µM", "result": 0.727}, {"measurement": "relative viability", "setting": "[20]; first compound 2.53 µM", "result": 0.76}, {"measurement": "relative viability", "setting": "[21]; first compound 0.08 µM", "result": 0.85}, {"measurement": "relative viability", "setting": "[21]; first compound 0.253 µM", "result": 0.306}, {"measurement": "relative viability", "setting": "[21]; first compound 0.8 µM", "result": 0.827}, {"measurement": "relative viability", "setting": "[21]; first compound 2.53 µM", "result": 0.871}, {"measurement": "relative viability", "setting": "[22]; first compound 0.08 µM", "result": 0.783}, {"measurement": "relative viability", "setting": "[22]; first compound 0.253 µM", "result": 0.699}, {"measurement": "relative viability", "setting": "[22]; first compound 0.8 µM", "result": 0.732}, {"measurement": "relative viability", "setting": "[22]; first compound 2.53 µM", "result": 0.614}, {"measurement": "relative viability", "setting": "[23]; first compound 0.08 µM", "result": 0.942}, {"measurement": "relative viability", "setting": "[23]; first compound 0.253 µM", "result": 0.77}, {"measurement": "relative viability", "setting": "[23]; first compound 0.8 µM", "result": 0.596}, {"measurement": "relative viability", "setting": "[23]; first compound 2.53 µM", "result": 0.663}]}]}
